Laboratory results reported in US10285979B2, “Breast cancer therapeutic agent containing 5′-hydroxy-5-nitro-indirubin-3′-oxime as active ingredient” (ANYGEN CO., LTD., priority 2016, dated 2019).
Read-outs that look alike come from different tables or passages of the source.

System: MDA-MB-231 triple negative breast cancer cells
Conditions: paclitaxel 5 mg/kg
Excerpt: After implanting MDA-MB-231 triple negative breast cancer cells to the nude mouse, the tumor has been grown to the 200 mm^3 volume. […] The tumor growth has been observed for 27 days.
The tumor volume and shape in the nude mouse have been observed for 27 days.

Question: For `CC(=O)O[C@H]1C(=O)[C@@]2(C)[C@H]([C@H](OC(=O)c3ccccc3)[C@]3(O)C[C@H](OC(=O)[C@H](O)[C@@H](NC(=O)c4ccccc4)c4ccccc4)C(C)=C1C3(C)C)[C@]1(OC(C)=O)CO[C@@H]1C[C@@H]2O` [Paclitaxel, paclitaxel, reference compound], which “volume of tumor, Mean ± S.E.” value (day 0) is on record?
Answer: 277.1 ± 16.2

Question: What about the “volume of tumor, Mean ± S.E.” value (day 3) of the same molecule?
Answer: 354.3 ± 6.3

Question: And the “volume of tumor, Mean ± S.E.” value (day 6)?
Answer: 437.9 ± 20.8

Question: What about the “volume of tumor, Mean ± S.E.” value (day 12) of the same molecule?
Answer: 716.8 ± 72.9

Question: What about the “volume of tumor, Mean ± S.E.” value (day 15) of the same molecule?
Answer: 906.2 ± 88.2

Question: And the “volume of tumor, Mean ± S.E.” value (day 18)?
Answer: 1161.2 ± 86.4

Question: And the “volume of tumor, Mean ± S.E.” value (day 21)?
Answer: 1421.7 ± 82.6

Question: And the “volume of tumor, Mean ± S.E.” value (day 24)?
Answer: 1760.2 ± 83.8

Question: And the “volume of tumor, Mean ± S.E.” value (day 27)?
Answer: 2136.0 ± 125.9
